According to PMC8920097, “Prediction of hERG inhibition of drug discovery compounds using biomimetic HPLC measurements” (ADMET & DMPK, 2021):

Assays:
[1] = system: HSA; details: calibration set; log k = log (%binding/(101-%binding)) from literature % binding
[2] = system: AGP
[3] = system: AGP; details: calibration set; equilibrium dialysis; literature; cited from earlier work

log k HSA [1]: 1.5 | log k AGP [2]: 0.7
SMILES: CC(=O)CC(c1ccccc1)c1c(O)c2ccccc2oc1=O (stereo not drawn) [Warfarin]
% AGP [3]: 83.2%
